These compounds were tested against T1, G1 APOL1 (Homo sapiens, UniProt O14791, I384M/S342G) (assay: Acute APOL1 Thallium Assay with inducible stable clones of HEK 293 cells). Conditions: HEK 293 T-Rex inducible stable clone expressing G1 APOL1; read-out: Thallium Assay (IC50).
T1 construct: expressed in transfected cells
T1 sequence (O14791 28-398 S342G/I384M): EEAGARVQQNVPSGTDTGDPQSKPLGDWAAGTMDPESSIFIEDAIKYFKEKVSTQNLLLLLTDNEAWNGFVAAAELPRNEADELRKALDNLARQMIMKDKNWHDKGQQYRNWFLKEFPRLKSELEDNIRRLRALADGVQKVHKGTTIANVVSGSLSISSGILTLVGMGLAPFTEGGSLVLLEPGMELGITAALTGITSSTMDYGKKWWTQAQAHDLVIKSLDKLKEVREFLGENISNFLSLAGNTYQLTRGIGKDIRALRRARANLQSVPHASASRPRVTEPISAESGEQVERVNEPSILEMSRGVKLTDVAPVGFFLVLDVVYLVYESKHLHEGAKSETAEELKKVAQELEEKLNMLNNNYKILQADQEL
Type: cell-based
Procedure, shortened: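 APOL1 pore function was measured as thallium influx, detected by a Tl+-sensitive fluorescent dye loaded as AM ester, on a FLIPR Tetra after Tl+ addition. Cells were HEK T-Rex G1 APOL1 clone DC3.25, 26,000 per well, induced with tetracycline at plating in Opti-MEM assay medium.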
O=S(=O)(CCO)N[C@H]1C[C@H](c2c(-c3ccc(F)cc3)[nH]c3c(F)cc(F)cc32)C1 [Compound 146] was tested, and the IC50 was less than 0.25 µM.
Work on O=C1CC(C(=O)NC[C@H]2C[C@@H](c3c(-c4ccc(F)cc4)[nH]c4c(F)cc(F)cc43)C2)CN1 (stereo partly drawn) [Compound 294] yielded an IC50 greater than 1 µM.
Compound C[C@@H](O)C(=O)NC[C@H]1C[C@H](c2c(-c3ccc(F)cc3)[nH]c3c(F)cc(F)cc32)C1 [Compound 211] has an IC50 of 0.25 to 1 µM.
In the case of CO[C@@H](C)C(=O)NC[C@H]1C[C@H](c2c(-c3ccc(F)cc3)[nH]c3c(F)cc(F)cc32)C1 [Compound 270], the IC50 is reported as greater than 1 µM.
O=C1CC(NCC2CC(c3c(-c4ccc(F)cc4)[nH]c4c(F)cc(F)cc34)C2)CN1 (stereo not drawn) [Compound 410] was tested, and the IC50 was greater than 1 µM.
Work on CC1(C(=O)N[C@H]2C[C@@H](c3c(-c4ccc(F)cc4)[nH]c4c(F)cc(F)cc43)C2)CCC(=O)NC1 (mixture of isomers) [Compound 66] yielded an IC50 greater than 1 µM.
O=C1CC(C(=O)NC[C@H]2C[C@H](c3c(-c4ccc(F)cc4)[nH]c4c(F)cc(F)cc43)C2)C(=O)N1 (stereo partly drawn) [Compound 287] was tested, and the IC50 was greater than 1 µM.
O=S(=O)(NCCCn1ccnc1)NC[C@H]1C[C@H](c2c(-c3ccc(F)cc3)[nH]c3c(F)cc(F)cc32)C1 [Compound 366] showed an IC50 greater than 1 µM.
O=C(NC[C@H]1C[C@H](c2c(-c3ccc(F)cc3)[nH]c3c(F)cc(F)cc32)C1)[C@H]1CCCN1 [Compound 282] was tested, and the IC50 was greater than 1 µM.
CC(C)(C)OC(=O)N[C@@H](C(=O)NC[C@H]1C[C@H](c2c(-c3ccc(F)cc3)[nH]c3c(F)cc(F)cc32)C1)C1CC1 [Compound 277] gave an IC50 greater than 1 µM.
Fc1ccc(-c2[nH]c3c(F)cc(F)cc3c2C2CC(NC3COC3)C2)cc1 (stereo not drawn) [Compound 22] showed an IC50 greater than 1 µM.
For CC(CC(=O)NC[C@H]1C[C@@H](c2c(-c3ccc(F)cc3)[nH]c3c(F)cc(F)cc32)C1)N1CCOCC1 (mixture of isomers) [Compound 318], the IC50 was greater than 1 µM.
Compound O=C(CC1CCCOC1)N[C@H]1C[C@@H](c2c(-c3ccc(F)cc3)[nH]c3c(F)cc(F)cc32)C1 (stereo partly drawn) [Compound 53] has an IC50 greater than 1 µM.
NC1CC(c2c(-c3ccc(C4CC4)cc3)[nH]c3ccc(F)cc23)C1 (stereo not drawn) [Compound 7, 3-[2-(4-cyclopropylphenyl)-5-fluoro-1H-indol-3-yl]cyclobutanamine] was tested, and the IC50 was 0.25 to 1 µM.
O=C(NC[C@H]1C[C@H](c2c(-c3ccc(F)cc3)[nH]c3c(F)cc(F)cc32)C1)c1cccnn1 [Compound 297] showed an IC50 greater than 1 µM.
Compound O=C(CC1COC1)N[C@H]1C[C@H](c2c(-c3ccc(F)cc3)[nH]c3c(F)cc(F)cc32)C1 [Compound 138] has an IC50 greater than 1 µM.
O=C(CN1CCCC1)NC[C@H]1C[C@@H](c2c(-c3ccc(F)cc3)[nH]c3c(F)cc(F)cc32)C1 [Compound 327] was tested, and the IC50 was greater than 1 µM.
O=C(N[C@H]1C[C@H](Cc2c(-c3ccc(F)cc3)[nH]c3c(F)cc(F)cc23)C1)C1(CO)CC1 [Compound 159, N-[3-[[5,7-difluoro-2-(4-fluorophenyl)-1H-indol-3-yl]methyl]cyclobutyl]-1-(hydroxymethyl)cyclopropanecarboxamide] gave an IC50 greater than 1 µM.
For O=C(NC1CC(Cc2c(-c3ccc(F)cc3)[nH]c3c(F)cc(F)cc23)C1)c1ccn[nH]1 (stereo not drawn) [Compound 166], the IC50 was greater than 1 µM.
Fc1ccc(-c2[nH]c3c(F)cc(F)cc3c2C2CC(CNCC3COC3)C2)cc1 (stereo not drawn) [Compound 405] was tested, and the IC50 was greater than 1 µM.
For O=C(NC[C@H]1C[C@H](c2c(-c3ccc(F)cc3)[nH]c3c(F)cc(F)cc32)C1)c1ccn[nH]1 [Compound 292], the IC50 was greater than 1 µM.
O=C(c1c[nH]cn1)N1CC(c2c(-c3ccc(F)cc3)[nH]c3c(F)cc(F)cc23)C1 [Compound 441, (3-(5,7-difluoro-2-(4-fluorophenyl)-1H-indol-3-yl)azetidin-1-yl)(1H-imidazol-4-yl)methanone] was tested, and the IC50 was 0.25 to 1 µM.
O=C(NC[C@H]1C[C@H](c2c(-c3ccc(F)cc3)[nH]c3c(F)cc(F)cc32)C1)c1ncccn1 [Compound 265] gave an IC50 greater than 1 µM.
NC(C(=O)NC[C@H]1C[C@H](c2c(-c3ccc(F)cc3)[nH]c3c(F)cc(F)cc32)C1)C(F)(F)F (stereo partly drawn) [Compound 233] gave an IC50 greater than 1 µM.
In the case of O=C(CCN1CCCC1=O)NC[C@H]1C[C@@H](c2c(-c3ccc(F)cc3)[nH]c3c(F)cc(F)cc32)C1 [Compound 326], the IC50 is reported as greater than 1 µM.
OC[C@H]1C[C@H](c2c(-c3ccc(F)cc3)[nH]c3c(F)cc(F)cc32)C1 [Compound 425, [3-[5,7-difluoro-2-(4-fluorophenyl)-1H-indol-3-yl]cyclobutyl]methanol] gave an IC50 of less than 0.25 µM.
O=S(=O)(NC[C@H]1C[C@H](c2c(-c3ccc(F)cc3)[nH]c3c(F)cc(F)cc32)C1)N[C@@H]1CCC[C@@H]1O [Compound 357] showed an IC50 greater than 1 µM.
Compound O=C(Cc1ccncn1)NC[C@H]1C[C@H](c2c(-c3ccc(F)cc3)[nH]c3c(F)cc(F)cc32)C1 [Compound 251] has an IC50 greater than 1 µM.
Compound O=C(CCN1CCCC1=O)N[C@H]1C[C@@H](c2c(-c3ccc(F)cc3)[nH]c3c(F)cc(F)cc32)C1 [Compound 48] has an IC50 greater than 1 µM.
Compound CN(C)CCC(=O)N[C@H]1C[C@@H](c2c(-c3ccc(F)cc3)[nH]c3c(F)cc(F)cc32)C1 [Compound 59] has an IC50 greater than 1 µM.
In the case of CC(CO)(CO)NS(=O)(=O)NC[C@H]1C[C@H](c2c(-c3ccc(F)cc3)[nH]c3c(F)cc(F)cc32)C1 [Compound 365], the IC50 is reported as greater than 1 µM.
Work on NC(=O)CNC(=O)N[C@H]1C[C@H](c2c(-c3ccc(F)cc3)[nH]c3c(F)cc(F)cc32)C1 [Compound 448, 2-(3-((1r,3r)-3-(5,7-difluoro-2-(4-fluorophenyl)-1H-indol-3-yl)cyclobutyl)ureido)acetamide] yielded an IC50 of 0.25 to 1 µM.
With CC(=O)N1CC[C@@H](C(=O)NC[C@H]2C[C@H](c3c(-c4ccc(F)cc4)[nH]c4c(F)cc(F)cc43)C2)C1 [Compound 256] the IC50 was greater than 1 µM.
C[C@@H](CO)NS(=O)(=O)NC[C@H]1C[C@H](c2c(-c3ccc(F)cc3)[nH]c3c(F)cc(F)cc32)C1 [Compound 338] showed an IC50 of 0.25 to 1 µM.
OCCNC1CC(c2c(-c3ccc(F)cc3)[nH]c3c(F)cc(F)cc23)C1 (stereo not drawn) [Compound 25] gave an IC50 of 0.25 to 1 µM.
CN1CCC(CC(=O)NC[C@H]2C[C@@H](c3c(-c4ccc(F)cc4)[nH]c4c(F)cc(F)cc43)C2)C1 (stereo partly drawn) [Compound 260] showed an IC50 greater than 1 µM.
Work on O=C1CC[C@@H](C(=O)NC[C@H]2C[C@H](c3c(-c4ccc(F)cc4)[nH]c4c(F)cc(F)cc43)C2)N1 [Compound 235] yielded an IC50 greater than 1 µM.
Cn1ccc(CC(=O)N[C@H]2C[C@H](c3c(-c4ccc(F)cc4)[nH]c4c(F)cc(F)cc43)C2)n1 [Compound 106] was tested, and the IC50 was 0.25 to 1 µM.
In the case of CC(C(=O)NC[C@H]1C[C@@H](c2c(-c3ccc(F)cc3)[nH]c3c(F)cc(F)cc32)C1)n1ccnc1 (stereo partly drawn) [Compound 299], the IC50 is reported as greater than 1 µM.
With O=C(NC[C@H]1C[C@H](c2c(-c3ccc(F)cc3)[nH]c3c(F)cc(F)cc32)C1)C1(O)CC1 [Compound 283] the IC50 was greater than 1 µM.
With O=C1CC(C(=O)NC[C@H]2C[C@@H](c3c(-c4ccc(F)cc4)[nH]c4c(F)cc(F)cc43)C2)CC(=O)N1 [Compound 291] the IC50 was greater than 1 µM.
O=c1[nH]c2ccc(S(=O)(=O)N[C@H]3C[C@H](c4c(-c5ccc(F)cc5)[nH]c5c(F)cc(F)cc54)C3)cc2[nH]1 [Compound 153] was tested, and the IC50 was greater than 1 µM.
For COC1(CC(=O)N[C@H]2C[C@@H](c3c(-c4ccc(F)cc4)[nH]c4c(F)cc(F)cc43)C2)CCC1 [Compound 37], the IC50 was greater than 1 µM.
For CN1CCCC(CC(=O)NC[C@H]2C[C@@H](c3c(-c4ccc(F)cc4)[nH]c4c(F)cc(F)cc43)C2)C1 (stereo partly drawn) [Compound 315], the IC50 was greater than 1 µM.
Work on O=C(CC1(O)CCCCC1)N[C@H]1C[C@H](c2c(-c3ccc(F)cc3)[nH]c3c(F)cc(F)cc32)C1 [Compound 113] yielded an IC50 greater than 1 µM.
CC(C)C(O)C(=O)NC[C@H]1C[C@@H](c2c(-c3ccc(F)cc3)[nH]c3c(F)cc(F)cc32)C1 (stereo partly drawn) [Compound 301] showed an IC50 greater than 1 µM.
For Cn1cnc(CNS(=O)(=O)NC[C@H]2C[C@H](c3c(-c4ccc(F)cc4)[nH]c4c(F)cc(F)cc43)C2)c1 [Compound 367], the IC50 was greater than 1 µM.
C[C@H](O)C(=O)N1CC(Cc2c(-c3ccc(F)cc3)[nH]c3c(F)cc(F)cc23)C1 [Compound 438] showed an IC50 of less than 0.25 µM.
O=C(N1CC(c2c(-c3ccc(F)cc3)[nH]c3c(F)cc(F)cc23)C1)C1(O)CC1 [Compound 442, (3-(5,7-difluoro-2-(4-fluorophenyl)-1H-indol-3-yl)azetidin-1-yl)(1-hydroxycyclopropyl)methanone] showed an IC50 of 0.25 to 1 µM.
Compound O=C1C[C@H](C(=O)NC[C@H]2C[C@H](c3c(-c4ccc(F)cc4)[nH]c4c(F)cc(F)cc43)C2)N1 [Compound 237] has an IC50 greater than 1 µM.
Work on O=C1NCCC1C(=O)NC1CC(Cc2c(-c3ccc(F)cc3)[nH]c3c(F)cc(F)cc23)C1 (stereo not drawn) [Compound 163] yielded an IC50 greater than 1 µM.
CCS(=O)(=O)NCC(=O)N[C@H]1C[C@H](c2c(-c3ccc(F)cc3)[nH]c3c(F)cc(F)cc32)C1 [Compound 108] was tested, and the IC50 was greater than 1 µM.
O=C(CC1CCOCC1)N[C@H]1C[C@@H](c2c(-c3ccc(F)cc3)[nH]c3c(F)cc(F)cc32)C1 [Compound 34] was tested, and the IC50 was greater than 1 µM.
O=C(NC[C@H]1C[C@H](c2c(-c3ccc(F)cc3)[nH]c3c(F)cc(F)cc32)C1)c1ccc[nH]c1=O [Compound 330] was tested, and the IC50 was greater than 1 µM.
For CS(=O)(=O)CCC(=O)N[C@H]1C[C@@H](c2c(-c3ccc(F)cc3)[nH]c3c(F)cc(F)cc32)C1 [Compound 54], the IC50 was greater than 1 µM.
C[C@H](O)[C@H](CO)NCC1CC(c2c(-c3ccc(F)cc3)[nH]c3c(F)cc(F)cc23)C1 (stereo partly drawn) [Compound 392] was tested, and the IC50 was greater than 1 µM.
For CC(C(=O)NC[C@H]1C[C@@H](c2c(-c3ccc(F)cc3)[nH]c3c(F)cc(F)cc32)C1)N(C)C (mixture of isomers) [Compound 281], the IC50 was greater than 1 µM.

From patent US12281102B2, “Inhibitors of APOL1 and methods of using same” (Vertex Pharmaceuticals Incorporated, priority 2020, dated 2025)
